In patent publication US20220142995A1, “DUAL ATM AND DNA-PK INHIBITORS FOR USE IN ANTI-TUMOR THERAPY” (XRAD Therapeutics, Inc., priority 2019, published 2022):

Assays:
[1] = test system: pDNA-PK/DNA-PK in FADU tumors; experiment: Pharmacodynamic assay, pDNA-PK/DNA-PK in FADU tumors; assay type: in vivo, mice; details: for pDNA-PK/DNA-PK: FADU tumors
Description: (§1) Tumor Studies. Female NCr nu/nu mice (Crl:NU(NCr)-Foxn1 nu, Strain 490) were obtained from Charles River at 5-6 weeks of age. All animal procedures used in these studies were approved by the Institutional Animal Care and Use Committee (IACUC) at Duke University.
(§2) FADU or MDA-MB-231 cells were harvested during log phase growth for in vivo implantation. The resuspended cells were washed three times in phosphate buffered saline (PBS) before preparing the working dilution in PBS. FADU cells were diluted to 1×10^7 cells/mL and MDA-MB-231 cells were diluted to 5×10^7 cells/mL. Each mouse was injected subcutaneously in the right flank with 100 μL of the cellular suspension. Tumor growth was monitored until the tumors reached a target volume of at least 100 mm^3, at which point mice were randomly stratified into four treatment groups.
(§3) The vehicle used in this study was 0.5% (Hydroxypropyl)methyl cellulose (HPMC) and 0.2% Tween80 dissolved in deionized water. The pH of the vehicle was adjusted to 7.0-8.0 and the vehicle was stored at 4° C. On each day of in vivo treatment an appropriate mass of test compound was added to the vehicle at room temperature. The mixture was vortexed as necessary to generate a final concentration of 1.6 mg/mL.
(§4) Pharmacodynamic (PD) assays. Tumor studies were performed as follows. Mice bearing FADU or MDA-231 tumors were pre-dosed with vehicle alone or compound 569 alone at 3, 6, and 10 mg/kg. Tumors were then irradiated with 10 Gy 45 min after vehicle or compound 569 administration or left unirradiated (vehicle and compound 569 at 10 mg/kg). Tumors were harvested 1 h post radiation.
(§5) Tissue homogenates for pharmacodynamic analyses were collected and processed as follows. Tumor tissues from FADU or MDA-MB-231 tumors were flash frozen in liquid nitrogen and pulverized on dry ice using a tissue pulverizer. A portion of the tumor powder was transferred into a microtube, followed by addition of 500 μL of RIPA buffer [[…], pH 8.0, 150 mM NaCl, 0.1% SDS, 0.5% sodium deoxycholate, 1% IGEPAL® CA-630 (Sigma, 18896)]. To 10 ml of RIPA buffer, 2 tablets each of Protease inhibitor and Phosphatase inhibitor (Roche, #04693159001 & #04906837001), 200 μL of 0.1 M PMSF and 160 μL of Aprotinin, (Sigma, A6279) were added. The suspension was homogenized on ice with a pellet pestle motor (KONTES) and incubated on ice for 30 minutes. Cell lysates were centrifuged at 13,200 rpm for 15 min at 4° C. and supernatants were transferred to a new tube and analyzed for protein concentration with a BCA kit (Pierce, 23227), followed by immunoblotting.

[2] = test system: pKAP1/KAP1 in FADU tumors; experiment: Pharmacodynamic assay, pKAP1/KAP1 in FADU tumors; assay type: in vivo, mice; details: for pKAP1/KAP1: FADU tumors
Description: as §1, §2, §3, §4, §5

[3] = test system: pDNA-PK/DNA-PK in MDA-231 tumors; experiment: Pharmacodynamic assay, pDNA-PK/DNA-PK in MDA-231 tumors; assay type: in vivo, mice
Description: as §1, §2, §3, §4, §5

[4] = test system: pKAP1/KAP1 in MDA-231 tumors; experiment: Pharmacodynamic assay, pKAP1/KAP1 in MDA-231 tumors; assay type: in vivo, mice
Description: as §1, §2, §3, §4, §5

[5] = test system: FADU subcutaneous human xenograft; experiment: In vivo tumor growth delay study, FADU subcutaneous human xenograft mouse model
Description: as §1, §2
(§6) Following implantation of the tumor cell lines, mice were monitored once weekly for tumor development. Upon detection, tumors were measured in two dimensions using digital calipers. Tumors were treated after reaching at least 100 mm^3 and were measured two to three times weekly following enrollment in one of the treatment groups. The study endpoint was defined as tumor quintupling from the volume at time of treatment.
The vehicle used in this study was 0.5% (Hydroxypropyl)methyl cellulose (HPMC) and 0.2% Tween80 dissolved in deionized water. The pH of the vehicle was adjusted to 7.0-8.0 and the vehicle was stored at 4° C. […]
In vivo tumor growth delay study was performed as follows. Following implantation of the tumor cell lines, mice were monitored once weekly for tumor development. […]
(§7) Statistical and Graphical Analysis of the in vivo data. […] In order to adjust for the differing tumor sizes at the start of treatment, the relative tumor volume was calculated by dividing the tumor volume at each time point by the volume at baseline. […] When an animal exited the study due to tumor quintupling, the final tumor volume recorded for the animal was included with the data used to calculate the median volume at subsequent time points. […]

[6] = test system: MDA-MB-231 subcutaneous human xenograft; experiment: In vivo tumor growth delay study, MDA-MB-231 subcutaneous human xenograft mouse model
Description: as §1, §2, §6, §3
In vivo tumor growth delay study was performed as follows. Following implantation of the tumor cell lines, mice were monitored once weekly for tumor development. Upon development of a tumor measuring at least 100 mm^3, tumor-bearing mice were stratified to one of 4 groups, utilizing 5 mice per group. Tumor volumes were between 100 and 500 mm^3. Vehicle or compound 569 (10 mg/kg) were administered by oral gavage once daily for three consecutive days (qd×3), alone or in combination with focal radiation. The delivered volume of vehicle or compound 569 was adjusted based on body weight of the individual animals. […]
as §7

[7] = 10 Gy, 3 mg/kg oral, harvested 1 h post radiation
[8] = 10 Gy, 6 mg/kg oral, harvested 1 h post radiation
[9] = 10 Gy, 10 mg/kg oral, harvested 1 h post radiation

## CC(C)NCCOc1ncc(-c2cc3c4c(cnc3cc2F)N(C)C(=O)C42CCC2)cc1NS(C)(=O)=O [Compound 569, N-(5-(7′-Fluoro-3′-methyl-2′-oxo-2′,3′-dihydrospiro[cyclobutane-1,1′-pyrrolo[2,3-c]quinolin]-8′-yl)-2-(2-(isopropylamino)ethoxy)pyridin-3-yl)methanesulfonamide]
[1]; FADU and MDA231 tumors, 10 Gy, 3, 6 and 10 mg/kg oral
  inhibition of radiation-induced DNA-PK autophosphorylation and KAP1 phosphorylation in tumors: dose-dependent inhibition
[1]; [7]
  pDNA-PK/DNA-PK: 0.938
[1]; [8]
  pDNA-PK/DNA-PK: 0.658
[1]; [9]
  pDNA-PK/DNA-PK: 0.476
[1]; no radiation, 10 mg/kg oral
  pDNA-PK/DNA-PK: 0.343
[1]; Mus musculus, FADU and MDA231 tumors (FIGS. 4 and 5, Tables 2-5), 10 Gy, 10 mg/kg, read-out: inhibition of tumor levels of radiation-induced autophosphorylation of DNA-PK
  inhibition at 10 mg/kg: ~55%
[1]; unirradiated tumors, 10 mg/kg
  basal phosphorylation of DNA-PK in tumors: inhibited
[2]; [7]
  pKAP1/KAP1: 0.0903
[2]; [8]
  pKAP1/KAP1: 0.0982
[2]; [9]
  pKAP1/KAP1: 0.156
[2]; no radiation, 10 mg/kg oral
  pKAP1/KAP1: 0.00595
[2]; Mus musculus, FADU and MDA231 tumors (FIGS. 4 and 5, Tables 2-5), 10 Gy, 10 mg/kg, read-out: inhibition of tumor levels of radiation-induced phosphorylation of KAP1
  inhibition at 10 mg/kg: > 80%
[3]; [7]
  pDNA-PK/DNA-PK: 0.889
[3]; [8]
  pDNA-PK/DNA-PK: 0.670
[3]; [9]
  pDNA-PK/DNA-PK: 0.454
[3]; no radiation, 10 mg/kg oral
  pDNA-PK/DNA-PK: 0.223
[4]; [7]
  pKAP1/KAP1: 0.327
[4]; [8]
  pKAP1/KAP1: 0.0130
[4]; [9]
  pKAP1/KAP1: 0.00901
[4]; no radiation, 10 mg/kg oral
  pKAP1/KAP1: −0.00319
[5]; FADU, Group 2 (10 mg/kg qd×3 alone) versus Group 1 (vehicle)
  tumor growth curves and quintupling-free survival: nearly identical to those for Group 1
[5]; FADU, Group 4: 10 mg/kg + 3 Gy qd×3, P<0.01, logrank
  overall survival compared to Group 1, Group 2 and Group 3: significantly improved
[5]; FADU-bearing mice, 10 mg/kg qd×3 alone or with 3 Gy
  tolerability: well-tolerated
[6]; MDA-MB-231, Group 2 (10 mg/kg qd×3 alone) versus Group 1 (vehicle)
  tumor growth curves and quintupling-free survival: nearly identical to those for Group 1
[6]; MDA-MB-231, Group 4: 10 mg/kg + 3 Gy qd×3, P<0.01, logrank
  overall survival compared to Group 1, Group 2 and Group 3: significantly improved
[6]; MDA-MB-231, Group 4: 10 mg/kg + 3 Gy qd×3, unknown causes
  animals found dead: One animal was found dead on Day 35
[6]; MDA-MB-231-bearing mice, 10 mg/kg qd×3 alone or with 3 Gy
  tolerability: well-tolerated
